Reference: patent publication US9302999B2, “Substituted triazoles as herbicides” (E. I. DU PONT DE NEMOURS AND COMPANY, priority 2012, dated 2016)

Columns and labels:
[1] = system: nutsedge, yellow (yellow nutsedge, Cyperus esculentus); assay: Test C pre-/postemergence: nutsedge, yellow; type: in vivo
In short: (§1)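 Visual injury scored 0–100 (100 = complete control) against untreated controls after 13–15 greenhouse days. Surfactant-containing solvent formulations applied either to soil after sowing (loam/sand) or over 1- to 4-leaf plants, 2–18 cm tall.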

[2] = system: blackgrass (Alopecurus myosuroides); assay: Test C pre-/postemergence: blackgrass; type: in vivo
In short: as §1

rice (Oryza sativa) = assay: Test B flooded paddy: rice; type: in vivo; conditions: Flood, applied to paddy water at 2-leaf stage, visually evaluated after 13 to 15 days
In short: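 Two-leaf-stage plants, pots flooded (3 cm above soil) and treated through the water, which stayed at that depth. After 13–15 days in greenhouse conditions, visual assessment versus controls: 0 is no effect, 100 complete control, dash means no result.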

[3] = system: pigweed (Amaranthus retroflexus); assay: Test A pre-/postemergence: pigweed; type: in vivo
In short: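 Pre: directed soil spray after planting in loam + sand. Post: same formulation (non-phytotoxic solvent + surfactant) on 1–2-leaf plants, 2–10 cm. Greenhouse ~10 d; visual injury 0–100 vs untreated.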

[4] = system: pigweed (Amaranthus retroflexus); assay: Test C pre-/postemergence: pigweed; type: in vivo
In short: as §1

Barnyardgrass = assay: Test C preemergence: barnyardgrass; type: in vivo, Echinochloa crus-galli
Excerpt: Seeds of plant species selected from blackgrass (Alopecurus myosuroides), bromegrass, downy (downy bromegrass, Bromus tectorum), foxtail, green (green foxtail, Setaria viridis), ryegrass, Italian (Italian ryegrass, Lolium multiflorum), winter wheat (Triticum aestivum), wild oat (Avena fatua), galium (catchweed bedstraw, Galium aparine), bermudagrass (Cynodon dactylon), surinam grass (Brachiaria decumbens), cocklebur (common cocklebur, Xanthium strumarium), corn (Zea mays), large crabgrass (Digitaria sanguinalis), woolly cupgrass (Eriochloa villosa), foxtail, giant (giant foxtail, Setaria faberii), goosegrass (Eleusine indica), johnsongrass (Sorghum halepense), kochia (Kochia scoparia), lambsquarters (Chenopodium album), morningglory (Ipomoea coccinea), nightshade (eastern black nightshade, Solanum ptycanthum), nutsedge, yellow (yellow nutsedge, Cyperus esculentus), pigweed (Amaranthus retroflexus), ragweed (common ragweed, Ambrosia elation), soybean (Glycine max), common (oilseed) sunflower (Helianthus annuus), Russian thistle (Salsola kali) and velvetleaf (Abutilon theophrasti) were planted into a blend of loam soil and sand and treated preemergence with test chemicals formulated in a non-phytotoxic solvent mixture which included a surfactant.
Treated plants and controls were maintained in a greenhouse for 13 to 15 days, after which time all species were compared to controls and visually evaluated. Plant response ratings, summarized in Table C, are based on a scale of 0 to 100 where 0 is no effect and 100 is complete control. A dash (-) response means no test result.

[5] = system: galium (catchweed bedstraw, Galium aparine); assay: Test C pre-/postemergence: galium; type: in vivo
In short: as §1

[6] = system: ragweed (common ragweed, Ambrosia elation); assay: Test C pre-/postemergence: ragweed; type: in vivo
In short: as §1

[7] = system: winter wheat (Triticum aestivum); assay: Test C pre-/postemergence: winter wheat; type: in vivo
In short: as §1

[8] = system: morningglory (Ipomoea coccinea); assay: Test C pre-/postemergence: morningglory; type: in vivo
In short: as §1

wild oat (Avena fatua) = assay: Test C pre-/postemergence: wild oat; type: in vivo
In short: as §1

[9] = Preemergence, 31 g ai/ha, scale of 0 to 100, 0 is no effect, 100 is complete control
[10] = Preemergence, 62 g ai/ha, scale of 0 to 100, 0 is no effect, 100 is complete control
[11] = Preemergence, 125 g ai/ha, scale 0 to 100, 0 no effect, 100 complete control
[12] = Preemergence, 250 g ai/ha, scale 0 to 100, 0 no effect, 100 complete control
[13] = Postemergence, 125 g ai/ha, 0 to 100 scale, 0 is no effect, 100 is complete control
[14] = Preemergence, 125 g ai/ha, 0 to 100 scale where 0 is no effect and 100 is complete control
[15] = Preemergence, 500 g ai/ha, 0 to 100 scale (0 no effect, 100 complete control)
[16] = Postemergence, 31 g ai/ha, scale 0 to 100 (0 no effect, 100 complete control)
[17] = Postemergence, 62 g ai/ha, scale 0 to 100 (0 no effect, 100 complete control)
[18] = Postemergence, 125 g ai/ha, scale 0 to 100, 0 no effect, 100 complete control
[19] = Postemergence, 250 g ai/ha, scale 0 to 100
[20] = Postemergence, 500 g ai/ha, visual rating on 0 to 100 scale (0 no effect, 100 complete control), approximately ten days

CCOCc1nn(-c2ccc(F)cc2)nc1Oc1ccnc(C(F)(F)F)c1 [Compound 163]
Plant response rating, Nutsedge, Yellow [1, 9]: 0 | Plant response rating, Nutsedge, Yellow [1, 10]: 0 | Plant response rating, Nutsedge, Yellow [1, 11]: 20 | Plant response rating, Nutsedge, Yellow [1, 12]: 75 | Plant response rating, Blackgrass [2, 9]: 5 | Plant response rating, Blackgrass [2, 10]: 85 | Plant response rating, Blackgrass [2, 11]: 90 | Plant response rating, Blackgrass [2, 12]: 95 | Plant response rating, Rice (0 to 100 scale, 0 is no effect, 100 is complete control) (rice (Oryza sativa); 125 g ai/ha): 15 | Plant response rating, Pigweed [3, 13]: 100 | Pigweed plant response rating ([3]; Postemergence, 500 g ai/ha, 0 to 100 scale, 0 is no effect, 100 is complete control): 100 | Plant response rating, Pigweed [3, 14]: 100 | Plant response rating, Pigweed [3, 15]: 100 | Plant response rating, Pigweed [4, 9]: 95 | Plant response rating, Pigweed [4, 10]: 98 | Plant response rating, Pigweed [4, 11]: 100 | Plant response rating, Pigweed [4, 12]: 100 | Plant response rating, Barnyardgrass (Barnyardgrass; 31 g ai/ha, scale of 0 to 100, 0 is no effect, 100 is complete control): 10 | Plant response rating, Barnyardgrass (Barnyardgrass; 62 g ai/ha, scale of 0 to 100, 0 is no effect, 100 is complete control): 25 | Plant response rating, Barnyardgrass (Barnyardgrass; 125 g ai/ha, scale 0 to 100, 0 no effect, 100 complete control): 75 | Plant response rating, Galium [5, 9]: 0 | Plant response rating, Galium [5, 10]: 5 | Plant response rating, Galium [5, 11]: 5 | Plant response rating, Galium [5, 12]: 75 | Plant response rating, Ragweed [6, 9]: 0 | Plant response rating, Ragweed [6, 10]: 10 | Plant response rating, Ragweed [6, 11]: 20 | Plant response rating, Ragweed [6, 12]: 35 | Plant response rating, Wheat [7, 10]: 0 | Plant response rating, Wheat [7, 11]: 0 | Plant response rating, Wheat [7, 12]: 0 | Plant response rating, Morningglory [8, 9]: 20 | Plant response rating, Morningglory [8, 10]: 25 | Plant response rating, Morningglory [8, 11]: 30 | Plant response rating, Morningglory [8, 12]: 75

Cc1nn(-c2ccc(C(F)(F)F)c(F)c2)nc1Oc1ccnc(C(F)(F)F)c1 [Compound 148]
Plant response rating, Nutsedge, Yellow [1, 16]: 10 | Plant response rating, Nutsedge, Yellow [1, 17]: 10 | Plant response rating, Nutsedge, Yellow [1, 18]: 15 | Plant response rating, Nutsedge, Yellow [1, 19]: 15 | Plant response rating, Nutsedge, Yellow [1, 9]: 0 | Plant response rating, Nutsedge, Yellow [1, 10]: 5 | Plant response rating, Nutsedge, Yellow [1, 11]: 5 | Plant response rating, Blackgrass [2, 16]: 40 | Plant response rating, Blackgrass [2, 17]: 50 | Plant response rating, Blackgrass [2, 18]: 70 | Plant response rating, Blackgrass [2, 19]: 80 | Plant response rating, Blackgrass [2, 9]: 60 | Plant response rating, Blackgrass [2, 10]: 85 | Plant response rating, Blackgrass [2, 11]: 90 | Plant response rating, Blackgrass [2, 12]: 90 | Plant response rating, Rice (0 to 100 scale, 0 is no effect, 100 is complete control) (rice (Oryza sativa); 250 g ai/ha): 45 | Plant response rating, Pigweed [3, 13]: 100 | Pigweed plant response rating [3, 20]: 100 | Plant response rating, Pigweed [3, 14]: 100 | Plant response rating, Pigweed [3, 15]: 100 | Plant response rating, Pigweed [4, 16]: 65 | Plant response rating, Pigweed [4, 17]: 98 | Plant response rating, Pigweed [4, 18]: 98 | Plant response rating, Pigweed [4, 19]: 98 | Plant response rating, Pigweed [4, 9]: 100 | Plant response rating, Pigweed [4, 10]: 100 | Plant response rating, Pigweed [4, 11]: 100 | Plant response rating, Pigweed [4, 12]: 100 | Plant response rating, Oat, Wild (wild oat (Avena fatua); [16]): 15 | Plant response rating, Oat, Wild (wild oat (Avena fatua); [17]): 45 | Plant response rating, Oat, Wild (wild oat (Avena fatua); [18]): 80 | Plant response rating, Oat, Wild (wild oat (Avena fatua); [19]): 90 | Plant response rating, Oat, Wild (wild oat (Avena fatua); [9]): 35 | Plant response rating, Oat, Wild (wild oat (Avena fatua); [10]): 85 | Plant response rating, Oat, Wild (wild oat (Avena fatua); [11]): 85 | Plant response rating, Oat, Wild (wild oat (Avena fatua); [12]): 85 | Plant response rating, Galium [5, 16]: 80 | Plant response rating, Galium [5, 17]: 90 | Plant response rating, Galium [5, 18]: 90 | Plant response rating, Galium [5, 19]: 90 | Plant response rating, Galium [5, 9]: 80 | Plant response rating, Galium [5, 10]: 100 | Plant response rating, Galium [5, 11]: 100 | Plant response rating, Galium [5, 12]: 100 | Plant response rating, Ragweed [6, 16]: 65 | Plant response rating, Ragweed [6, 17]: 85 | Plant response rating, Ragweed [6, 18]: 85 | Plant response rating, Ragweed [6, 19]: 85 | Plant response rating, Ragweed [6, 9]: 15 | Plant response rating, Ragweed [6, 10]: 45 | Plant response rating, Ragweed [6, 11]: 55 | Plant response rating, Ragweed [6, 12]: 70 | Plant response rating, Wheat [7, 16]: 20 | Plant response rating, Wheat [7, 17]: 25 | Plant response rating, Wheat [7, 18]: 40 | Plant response rating, Wheat [7, 19]: 40 | Plant response rating, Wheat [7, 10]: 5 | Plant response rating, Wheat [7, 11]: 30 | Plant response rating, Wheat [7, 12]: 35 | Plant response rating, Morningglory [8, 16]: 70 | Plant response rating, Morningglory [8, 17]: 98 | Plant response rating, Morningglory [8, 18]: 98 | Plant response rating, Morningglory [8, 19]: 98 | Plant response rating, Morningglory [8, 9]: 20 | Plant response rating, Morningglory [8, 10]: 20 | Plant response rating, Morningglory [8, 11]: 55 | Plant response rating, Morningglory [8, 12]: 75

COc1nn(-c2ccc(C(F)(F)F)cc2)nc1Cc1ccnc(C(F)F)c1 [Compound 138]
Plant response rating, Nutsedge, Yellow [1, 16]: 10 | Plant response rating, Nutsedge, Yellow [1, 17]: 10 | Plant response rating, Nutsedge, Yellow [1, 18]: 15 | Plant response rating, Nutsedge, Yellow [1, 19]: 20 | Plant response rating, Nutsedge, Yellow [1, 9]: 5 | Plant response rating, Nutsedge, Yellow [1, 11]: 5 | Plant response rating, Nutsedge, Yellow [1, 12]: 5 | Plant response rating, Blackgrass [2, 16]: 20 | Plant response rating, Blackgrass [2, 17]: 40 | Plant response rating, Blackgrass [2, 18]: 40 | Plant response rating, Blackgrass [2, 19]: 45 | Plant response rating, Blackgrass [2, 9]: 90 | Plant response rating, Blackgrass [2, 10]: 95 | Plant response rating, Blackgrass [2, 11]: 95 | Plant response rating, Blackgrass [2, 12]: 95 | Plant response rating, Rice (0 to 100 scale, 0 is no effect, 100 is complete control) (rice (Oryza sativa); 250 g ai/ha): 50 | Plant response rating, Pigweed [3, 13]: 100 | Pigweed plant response rating [3, 20]: 100 | Plant response rating, Pigweed [3, 14]: 100 | Plant response rating, Pigweed [3, 15]: 100 | Plant response rating, Pigweed [4, 16]: 98 | Plant response rating, Pigweed [4, 17]: 98 | Plant response rating, Pigweed [4, 18]: 98 | Plant response rating, Pigweed [4, 19]: 100 | Plant response rating, Pigweed [4, 9]: 98 | Plant response rating, Pigweed [4, 10]: 100 | Plant response rating, Pigweed [4, 11]: 100 | Plant response rating, Pigweed [4, 12]: 100 | Plant response rating, Oat, Wild (wild oat (Avena fatua); [16]): 55 | Plant response rating, Oat, Wild (wild oat (Avena fatua); [17]): 60 | Plant response rating, Oat, Wild (wild oat (Avena fatua); [18]): 80 | Plant response rating, Oat, Wild (wild oat (Avena fatua); [19]): 98 | Plant response rating, Oat, Wild (wild oat (Avena fatua); [9]): 80 | Plant response rating, Oat, Wild (wild oat (Avena fatua); [10]): 85 | Plant response rating, Oat, Wild (wild oat (Avena fatua); [11]): 95 | Plant response rating, Oat, Wild (wild oat (Avena fatua); [12]): 95 | Plant response rating, Galium [5, 16]: 85 | Plant response rating, Galium [5, 17]: 90 | Plant response rating, Galium [5, 19]: 90 | Plant response rating, Galium [5, 9]: 95 | Plant response rating, Galium [5, 10]: 100 | Plant response rating, Galium [5, 11]: 100 | Plant response rating, Galium [5, 12]: 100 | Plant response rating, Ragweed [6, 16]: 75 | Plant response rating, Ragweed [6, 17]: 80 | Plant response rating, Ragweed [6, 18]: 85 | Plant response rating, Ragweed [6, 19]: 85 | Plant response rating, Ragweed [6, 9]: 40 | Plant response rating, Ragweed [6, 10]: 45 | Plant response rating, Ragweed [6, 11]: 50 | Plant response rating, Ragweed [6, 12]: 50 | Plant response rating, Wheat [7, 16]: 10 | Plant response rating, Wheat [7, 17]: 10 | Plant response rating, Wheat [7, 18]: 35 | Plant response rating, Wheat [7, 19]: 35 | Plant response rating, Wheat [7, 10]: 5 | Plant response rating, Wheat [7, 11]: 10 | Plant response rating, Wheat [7, 12]: 50 | Plant response rating, Morningglory [8, 16]: 90 | Plant response rating, Morningglory [8, 17]: 90 | Plant response rating, Morningglory [8, 18]: 98 | Plant response rating, Morningglory [8, 19]: 98 | Plant response rating, Morningglory [8, 9]: 15 | Plant response rating, Morningglory [8, 10]: 55 | Plant response rating, Morningglory [8, 11]: 65 | Plant response rating, Morningglory [8, 12]: 98
